This note sets out measurements from patent US6455506B1, “Lyxofuranosyl benzimidazoles as antiviral agents” (SmithKline Beecham Corporation, priority 1997, dated 2002).

Each structure is given as a SMILES string. “And” between values parts separate entries of the source, which are not always exact repeats. Identical values can stand only once. Like-named read-outs stand apart in the source and are kept apart here. A value given as a limit tells only on which side of the number the result lay.

Data set [1] deals with HCMV. Briefly: HCMV plaque reduction assay (Towne strain) in HFF cells. It counts as cell-based, Human cytomegalovirus. As for the experimental part:
(§1) Stock HCMV was prepared by infecting HFF cells at a multiplicity of infection (m.o.i.) of <0.01 plaque-forming units (p.f.u.) per cell as detailed previously (see Turk, S. R.; Shipman, C., Jr.; Nassiri, M. R.; Genzingler, G.; Krawczyk, S. H.; Townsend, L. B.; Drach, J. C. Pyrrolo[2,3-d]pyrimidine Nucleosides as Inhibitors of Human Cytomegalovirus, Antimicrob. Agents Chemother. 1987, 31, 544-550). High titer HSV-1 stocks were prepared by infecting KB cells (ATCC) at an m.o.i. of <0.1 also as detailed previously (see Turk, S. R.; Shipman, C., Jr.; Nassiri, M. R.; Genzingler, G.; Krawczyk, S. H.; Townsend, L. B.; Drach, J. C. Pyrrolo[2,3-d]pyrimidine Nucleosides as Inhibitors of Human Cytomegalovirus, Antimicrob. Agents Chemother. 1987, 31, 544-550). Virus titers were determined using monolayer cultures of HFF cells for HCMV and monolayer cultures of BSC-1 cells for HSV-1 as described earlier (see Prichard, M. N.; Turk, S. R.; Coleman, L. A.; Engelhardt, S. L.; Shipman, C., Jr.; Drach, J. C. A Microtiter Virus Yield Reduction Assay for the Evaluation of Antiviral Compounds Against Human Cytomegalovirus and Herpes Simplex Virus. J. Virol. Methods 1990, 28, 101-106). Briefly, HFF or BSC-1 cells were planted as described above in 96-well cluster dishes and incubated overnight at 37° C. The next day cultures were inoculated with HCMV or HSV-1 and serially diluted 1:3 across the remaining eleven columns of the 96-well plate. After virus adsorption the inoculum was replaced with fresh medium and cultures were incubated for seven days for HCMV, two or three days for HSV-1. Plaques were enumerated under 20-fold magnification in wells having the dilution which gave 5 to 20 plaques per well. Virus titers were calculated according to the following formula: Titer (p.f.u./mL)=number of plaques×5×3^n; where n represents the nth dilution of the virus used to infect the well in which plaques were enumerated.
(§2) HFF cells in 24-well cluster dishes were infected with approximately 100 p.f.u. of HCMV per cm^2 cell sheet using the procedures detailed above. Following virus adsorption, compounds dissolved in growth medium were added to duplicate wells in four to eight selected concentrations. After incubation at 37° C. for 7 to 10 days, cell sheets were fixed, stained with crystal violet and microscopic plaques enumerated as described above.
(§3) Dose-response relationships were constructed by linearly regressing the percent inhibition of parameters derived in the preceding sections against log drug concentrations. Fifty-percent inhibitory concentrations (IC50's) or IC90's were calculated from the regression lines. Samples containing positive controls (acyclovir for HSV-1, ganciclovir for HCMV, and 2-acetylpyridine thiosemicarbazone for cytotoxicity) were used in all assays.
On the technique in general: In a plaque reduction assay, fewer plaques than in the control indicate reduced infectivity or spread.

The test system of data set [2] is HCMV. Briefly: HCMV yield reduction assay (Towne strain) in HFF cells. It counts as cell-based, Human cytomegalovirus. Here is the method: as §1
HFF cells were planted as described above in 96-well cluster dishes, incubated overnight, medium removed and the cultures were inoculated with HCMV at a m.o.i. of 0.5 to 1 p.f.u. per cell as reported elsewhere (see Prichard, M. N.; Turk, S. R.; Coleman, L. A.; Engelhardt, S. L.; Shipman, C., Jr.; Drach, J. C. A Microtiter Virus Yield Reduction Assay for the Evaluation of Antiviral Compounds Against Human Cytomegalovirus and Herpes Simplex Virus. J. Virol. Methods 1990, 28, 101-106). After virus adsorption, inoculum was replaced with 0.2 mL of fresh medium containing test compounds. The first row of 12 wells was left undisturbed and served as virus controls. Each well in the second row received an additional 0.1 mL of medium with test compound at three times the desired final concentration. The contents of the 12 wells were mixed by repeated pipetting and then serially diluted 1:3 along the remaining wells. In this manner, six compounds could be tested in duplicate on a single plate with concentrations from […]. Plates were incubated at 37° C. for seven days, subjected to one cycle of freezing and thawing; aliquots from each of the eight wells of a given column were transferred to the first column of a fresh 96-well monolayer culture of HFF cells. Contents were mixed and serially diluted 1:3 across the remaining eleven columns of the secondary plate. Each column of the original primary plate was diluted across a separate plate in this manner. Cultures were incubated, plaques were enumerated, and titers calculated as described above.
as §3

The subject of data set [3] is HSV-1. Briefly: HSV-1 ELISA in BSC-1 cells. It counts as cell-based, herpes simplex virus 1. As to conditions: Human alphaherpesvirus 1, quadruplicate wells, read-out: HSV-1 ELISA 50% Inhibitory Concentration (IC50). As for the experimental part:
An ELISA was employed (see Prichard, M. N.; Shipman, C., Jr. A Three Dimensional Model to Analyze Drug-Drug Interactions. Antiviral Res. 1990, 14, 181-206) to detect HSV-1. Ninety-six-well cluster dishes were planted with 10,000 BSC-1 cells per well in 200 μL per well of MEM(E) plus 10% calf serum. After overnight incubation at 37° C., selected drug concentrations in quadruplicate and HSV-1 at a concentration of 100 p.f.u./well were added. Following a 3-day incubation at 37° C., medium was removed, plates were blocked, rinsed, and horse radish peroxidase conjugated rabbit anti-HSV-1 antibody was added. Following removal of the antibody containing solution, plates were rinsed, and then developed by adding 150 μL per well of a solution of tetramethylbenzidine as substrate. The reaction was stopped with H2SO4 and absorbance was read at 450 and 570 nm. Drug effects were calculated as a percentage of the reduction in absorbance in the presence of each drug concentration compared to absorbance obtained with virus in the absence of drug.
as §3
Background: ELISA stands for enzyme-linked immunosorbent assay.

Data set [4] can be described thus: Visual cytotoxicity in stationary HFF cells. As to conditions: human. In kind it is cell-based. As for the experimental part:
(§4) Two different assays were used for routine cytotoxicity testing. (i) Cytotoxicity produced in stationary HFF cells was determined by microscopic inspection of cells not affected by the virus used in plaque assays (see Turk, S. R.; Shipman, C., Jr.; Nassiri, M. R.; Genzingler, G.; Krawczyk, S. H.; Townsend, L. B.; Drach, J. C. Pyrrolo[2,3-]pyrimidine Nucleosides as Inhibitors of Human Cytomegalovirus, Antimicrob. Agents Chemother. 1987, 31, 544-550). (ii) The effect of compounds during two population doublings of KB cells was determined by crystal violet staining and spectrophotometric quantitation of dye eluted from stained cells as described earlier (see Prichard, M. N.; Prichard, L. E., Baguley, W. A.; Nassiri, M. R.; Shipman, C., Jr. Three-Dimensional Analysis of the Synergistic Cytotoxicity of Ganciclovir and Zidovudine. Antiviral Res. 1991, 35, 1060-1065). Briefly, 96-well cluster dishes were planted with KB cells at 3000-5000 cells per well. After overnight incubation at 37° C., test compound was added in quadruplicate at six to eight concentrations. Plates were incubated at 37° C. for 48 hours in a CO2 incubator, rinsed, fixed with 95% ethanol, and stained with 0.1% crystal violet. Acidified ethanol was added and plates read at 570 nm in a spectrophotometer designed to read 96-well ELISA assay plates.
as §3

Data set [5] in a line: Inhibition of KB cell growth (crystal violet). In kind it is cell-based. As to conditions: human. Here is the method: as §4, §3
The subject of data set [6] is HCMV Strain AD169. As to the kind of experiment: HCMV plaque reduction assay, strain AD169. In kind it is cell-based, Human cytomegalovirus. As to conditions: Human betaherpesvirus 5, Table 3, read-out: HCMV Strain AD169 plaque 50% Inhibitory Concentration (IC50). Here is the method: as §2, §3
[7] abbreviates: Human betaherpesvirus 5, HFF, Table 3, same data as Table 2, read-out: HCMV Strain Towne plaque 50% Inhibitory Concentration (IC50).
[8] abbreviates: Human betaherpesvirus 5, Table 2, HFF cells, duplicate, read-out: HCMV plaque 50% Inhibitory Concentration (IC50).
[9] abbreviates: Human betaherpesvirus 5, HFF, Table 3, same data as Table 2, read-out: HCMV Strain Towne yield 90% Inhibitory Concentration (IC90).
[10] abbreviates: Human betaherpesvirus 5, Table 2, HFF cells, duplicate, read-out: HCMV yield 90% Inhibitory Concentration (IC90).
[11] abbreviates: HFF cells, scored at time of HCMV plaque enumeration, read-out: Cytotoxicity visual (IC50).
Where [12] appears, read: KB cells, KB cell growth, 48 hours, quadruplicate, read-out: Cytotoxicity growth (IC50).

For the molecule `OC[C@@H]1O[C@@H](n2c(Cl)nc3cc(Cl)c(Cl)cc32)[C@H](O)[C@@H]1O` [Compound 4a, 1-(α-L-Lyxofuranosyl)-2,5,6-trichlorobenzimidazole], the IC50 was 18 µM in data set [1] (setting [7]); 18 µM in data set [1] (setting [8]); above 100 µM in data set [3]; 190 µM in data set [4]; 2.6 µM in data set [6]. For the same molecule, the IC90 in data set [2] (setting [9]) and in data set [2] (setting [10]) was 3.4 µM each time. The IC50 at 48 h in data set [5] was above 100 µM.

In the case of `OC[C@H]1O[C@H](n2c(Cl)nc3cc(Cl)c(Cl)cc32)[C@@H](O)[C@H]1O` [Compound 4b, 1-(α-D-Lyxofuranosyl)-2,5,6-trichlorobenzimidazole], the IC50 in data set [1] (setting [7]) was 18 µM; in data set [1] (setting [8]) it was 18 µM; in data set [3], 90 µM; in data set [4], above 100 µM; in data set [6] it was 9 µM. The IC90 in data set [2] (setting [9]) and in data set [2] (setting [10]) was above 100 µM throughout. Further, in data set [5], the IC50 at 48 h was above 100 µM.

For the molecule `OC[C@H]1O[C@H](n2c(Br)nc3cc(Cl)c(Cl)cc32)[C@@H](O)[C@H]1O` [Compound 5b, 2-Bromo-5,6-dichloro-1-(α-D-lyxofuranosyl)benzimidazole], the IC50 in data set [1] (setting [7]) was 6 µM; in data set [1] (setting [8]) it was 6 µM; in data set [3], 50 µM; in data set [4] (setting [11]) it was above 100 µM; in data set [6], 4.2 µM. For the same molecule, the IC90 in data set [2] (setting [9]) and in data set [2] (setting [10]) was 65 µM throughout. The IC50 at 48 h in data set [5] (setting [12]) was above 100 µM.

Regarding `CNc1nc2cc(Cl)c(Cl)cc2n1[C@H]1O[C@H](CO)[C@H](O)[C@@H]1O` [Compound 6b, 5,6-Dichloro-1-(α-D-lyxofuranosyl)-2-(methylamino)benzimidazole], the IC50 in data set [1] (setting [8]), in data set [3] and in data set [4] (setting [11]) was above 100 µM each time. Besides, the IC90 in data set [2] (setting [10]) was above 100 µM. Moreover, in data set [5] (setting [12]), the IC50 at 48 h was above 100 µM.

For the molecule `CC(C)Nc1nc2cc(Cl)c(Cl)cc2n1[C@@H]1O[C@@H](CO)[C@@H](O)[C@H]1O` [Compound 7a, 5,6-Dichloro-2-isopropylamino-1-(α-L-lyxofuranosyl)benzimidazole], the IC50 in data set [1] (setting [7]) is above 100 µM; in data set [1] (setting [8]) it was above 100 µM; in data set [3], above 100 µM; in data set [4] (setting [11]) it was above 100 µM; in data set [6], 11 µM. Moreover, the IC90 in data set [2] (setting [9]) and in data set [2] (setting [10]) was 19 µM in each case. Moreover, the IC50 at 48 h in data set [5] (setting [12]) was above 100 µM.

Regarding `CC(C)Nc1nc2cc(Cl)c(Cl)cc2n1[C@H]1O[C@H](CO)[C@H](O)[C@@H]1O` [Compound 7b, 5,6-Dichloro-2-isopropylamino-1-(α-D-lyxofuranosyl)benzimidazole], the IC50 in data set [1] (setting [7]) was 60 µM; in data set [1] (setting [8]), 60 µM; in data set [3] it was above 100 µM; in data set [4] (setting [11]), above 100 µM; in data set [6], 32 µM. The IC90 in data set [2] (setting [9]) and in data set [2] (setting [10]) was 17 µM throughout. The IC50 at 48 h in data set [5] (setting [12]) was above 100 µM.

What is called melting point is the temperature, or range, at which the solid turns liquid. In the case of `OC[C@@H]1O[C@@H](n2c(NC3CC3)nc3cc(Cl)c(Cl)cc32)[C@H](O)[C@@H]1O` [Compound 8a, 2-Cyclopropylamino-5,6-dichloro-1-(α-L-lyxofuranosyl)benzimidazole], the melting point is 183 to 185 °C and 184 to 186 °C.

Turning to `OC[C@H]1O[C@H](n2c(=S)[nH]c3cc(Cl)c(Cl)cc32)[C@@H](O)[C@H]1O` [Compound 9b, 5,6-Dichloro-1-(α-D-lyxofuranosyl)benzimidazol-2-thione], the IC50 in data set [1] (setting [8]), in data set [3] and in data set [4] (setting [11]) was above 100 µM each time. In data set [2] (setting [10]), the IC90 is above 100 µM. The IC50 at 48 h in data set [5] (setting [12]) is above 100 µM.

`CSc1nc2cc(Cl)c(Cl)cc2n1[C@@H]1O[C@@H](CO)[C@@H](O)[C@H]1O` [Compound 12a, 5,6-Dichloro-1-(α-L-lyxofuranosyl)-2-(methylthio)benzimidazole]: the IC50 in data set [1] (setting [8]), in data set [3] and in data set [4] (setting [11]) was above 100 µM throughout. The IC50 at 48 h in data set [5] (setting [12]) is above 100 µM.

With `CSc1nc2cc(Cl)c(Cl)cc2n1[C@H]1O[C@H](CO)[C@H](O)[C@@H]1O` [Compound 12b, 5,6-Dichloro-1(α-D-lyxofuranosyl)-2-(methylthio)benzimidazole], the IC50 in data set [1] (setting [8]), in data set [3] and in data set [4] (setting [11]) was above 100 µM each time. In addition, the IC90 in data set [2] (setting [10]) is above 100 µM. Moreover, in data set [5] (setting [12]), the IC50 at 48 h was above 100 µM.

As for `O=C(O)P(=O)(O)O` [foscarnet, reference compound], the IC50 in data set [1] (setting [8]) is 39 ± 26 µM; in data set [4] (setting [11]), above 100 µM.
